Source: PubChem BioAssay (NCI)
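Interpolation was linear, between the two tested concentrations surrounding the appropriate level; five concentrations were tested over 48 hours in 96-well plates. TGI marks complete inhibition of growth.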

Tests used:
Assay in all cases: NCI-60 cell line screen, 48 h
UACC-62 melanoma = test system: UACC-62 melanoma
K-562 leukemia = test system: K-562 leukemia
LOX IMVI melanoma = test system: LOX IMVI melanoma
RPMI-8226 leukemia = test system: RPMI-8226 leukemia
SR leukemia = test system: SR leukemia
BT-549 breast = test system: BT-549 breast
OVCAR-3 ovarian = test system: OVCAR-3 ovarian
CAKI-1 renal = test system: CAKI-1 renal
UO-31 renal = test system: UO-31 renal
MDA-MB-231 breast = test system: MDA-MB-231 breast
HCC-2998 colon = test system: HCC-2998 colon
SK-MEL-5 melanoma = test system: SK-MEL-5 melanoma
HL-60(TB) leukemia = test system: HL-60(TB) leukemia
HCT-15 colon = test system: HCT-15 colon
U251 CNS = test system: U251 CNS
SF-295 CNS = test system: SF-295 CNS
HT29 colon = test system: HT29 colon
IGROV1 ovarian = test system: IGROV1 ovarian
786-0 renal = test system: 786-0 renal
UACC-257 melanoma = test system: UACC-257 melanoma
NCI-H226 lung = test system: NCI-H226 lung
HS 578T breast = test system: HS 578T breast
SK-OV-3 ovarian = test system: SK-OV-3 ovarian
COLO 205 colon = test system: COLO 205 colon
OVCAR-5 ovarian = test system: OVCAR-5 ovarian
TK-10 renal = test system: TK-10 renal
SN12C renal = test system: SN12C renal
MCF7 breast = test system: MCF7 breast
DU-145 prostate = test system: DU-145 prostate
CCRF-CEM leukemia = test system: CCRF-CEM leukemia
SNB-19 CNS = test system: SNB-19 CNS
T-47D breast = test system: T-47D breast
PC-3 prostate = test system: PC-3 prostate
NCI-H460 lung = test system: NCI-H460 lung
A549 NSCLC = test system: A549 NSCLC
OVCAR-4 ovarian = test system: OVCAR-4 ovarian
HOP-62 NSCLC = test system: HOP-62 NSCLC
EKVX NSCLC = test system: EKVX NSCLC
NCI/ADR-RES ovarian = test system: NCI/ADR-RES ovarian
MOLT-4 leukemia = test system: MOLT-4 leukemia
RXF 393 renal = test system: RXF 393 renal
SW-620 colon = test system: SW-620 colon
OVCAR-8 ovarian = test system: OVCAR-8 ovarian
SF-268 CNS = test system: SF-268 CNS
SK-MEL-28 melanoma = test system: SK-MEL-28 melanoma
SNB-75 CNS = test system: SNB-75 CNS
MDA-N = test system: MDA-N
MDA-MB-435 = test system: MDA-MB-435
M14 melanoma = test system: M14 melanoma
MALME-3M melanoma = test system: MALME-3M melanoma
SK-MEL-2 melanoma = test system: SK-MEL-2 melanoma
ACHN renal = test system: ACHN renal
KM12 colon = test system: KM12 colon
NCI-H23 lung = test system: NCI-H23 lung
HCT-116 colon = test system: HCT-116 colon

Measured: TGI

CCCC(=O)n1[nH]c(=O)n(-c2ccc(Cl)cc2)c1=O
> 100 µM: all assays above
